Results on ten compounds are retold here after patent US8865624B2, “Inhibitor for tobacco axillary bud growth and method for inhibiting tobacco axillary bud growth” (SDS Biotech K.K., priority 2010, dated 2014).

Series [1] has as its system Tobacco Tsukuba 1 (flue-cured cultivar) axillary buds. The series is described as follows: Tobacco axillary bud growth inhibition test, flue-cured cultivar. The conditions noted are these: for pest or weed control at 0.5 %: Table 3, flue-cured cultivar, concentration of active ingredient 0.5%. Format: in vivo, Nicotiana tabacum. The protocol:
(§1) Tobacco seedlings of Tsukuba 1 (flue-cured cultivar) and Michinoku 1 (burley cultivar) were transplanted to 1/5000a Wagner pots filled with Kureha garden nursery soil. The plants were grown in a glasshouse, and the floral axis parts were removed at the time of single-flower bloom of tobacco (top pruning).
(§2) The formulations of the inhibitors for tobacco axillary bud growth obtained in Formulation Examples 1 to 10 above were each diluted with water to predetermined concentrations, and 20 ml of the water-diluted solutions of the respective inhibitors were separately sprayed using a contact-type axillary bud inhibitor spraying instrument equipped with a spot exhaust nozzle (Examples 1 to 11 and 12 to 22). In addition, butralin (trade name: Blue Ribbon) (Comparative Examples 1 and 3) and decyl alcohol (trade name: Contact) (Comparative Examples 2 and 4) were used for tests as comparative examples in the same manner as above. In the cases of both the flue-cured cultivar and burley cultivar, one plant was planted per pot, and the tests were carried out in duplicate.
(§3) For the respective cases, states of inhibition of axillary bud growth 28 days after the spraying were investigated together with untreated groups sprayed with no inhibitor, and axillary bud growth inhibition ratios were calculated by the following equation. Axillary bud growth inhibition ratio=(fresh weight of axillary buds per plant of untreated group−fresh weight of axillary buds per plant of treated group)÷(fresh weight of axillary buds per plant of untreated group)×100 [Math. 1]
(§4) The formulation of Formulation Example 1 (cafenstrole), Formulation Example 2 (thenylchlor) or Formulation Example 10 (propisochlor) above was diluted with water to predetermined concentrations and mixed with decyl alcohol (manufactured by Wako Pure Chemical Industries, Ltd.), 2-ethylhexanol (manufactured by Wako Pure Chemical Industries, Ltd.) or geraniol (manufactured by Wako Pure Chemical Industries, Ltd.) at predetermined concentrations, and the resultant was adjusted and used for tests (Examples 23 to 31 and 32 to 40). In addition, as comparative examples, the formulation of Formulation Example 1, […], or Formulation Example 10 diluted with water to predetermined concentrations (Comparative Examples 5 to 7 and 11 to 13) and decyl alcohol, 2-ethylhexanol or geraniol diluted with water to a predetermined concentration were used for tests (Comparative Examples 8 to 10 and 14 to 16).
(§5) The respective inhibitors were sprayed in the same manner as in Test Example 1, and states of inhibition of axillary bud growth 28 days after the spraying were investigated together with untreated groups sprayed with no inhibitor. Then, axillary bud growth inhibition ratios were calculated.
(§6) The formulation of Formulation Example 11 (cafenstrole), Formulation Example 12 (thenylchlor) or Formulation Example 13 (chlorthal-dimethyl) above was diluted with water to predetermined concentrations, and the resultant was mixed, adjusted and used for tests (Examples 41 to 58 and 59 to 76). In addition, as comparative examples, the formulation of Formulation Example 11, Formulation Example 12 or Formulation Example 13 diluted with water to predetermined concentrations (Comparative Examples 21 to 29 and 34 to 42), butralin (trade name: Blue Ribbon) (Comparative Examples 17, 18, 30, and 31) and decyl alcohol (trade name: Contact) (Comparative Examples 19, 20, 32, and 33) were used for tests in the same manner as above.

In series [2] the test system is Tobacco Michinoku 1 (burley cultivar) axillary buds. Briefly: Tobacco axillary bud growth inhibition test, burley cultivar. The settings on record: Nicotiana tabacum, 672 h, 28 days after the spraying; for pest or weed control at 0.5 %: Table 4, burley cultivar, concentration of active ingredient 0.5%; for pest or weed control at 0.1 %: concentration of active ingredient 0.1%; for pest or weed control at 2.6 %: concentration of active ingredient 2.6%; for pest or weed control at 0.03 %: concentration of active ingredient 0.03%; for pest or weed control at 0.35 %: concentration of active ingredient 0.35%; for pest or weed control at 0.05 %: concentration of active ingredient 0.05%. Format: in vivo. The protocol:
as §1, §2, §3, §4, §5, §6

The subject of series [3] is Tobacco Tsukuba 1 (flue-cured cultivar) leaves (first to fourth leaves from the top). Briefly: Harmful effect of inhibitor on tobacco leaves, flue-cured cultivar. Format: in vivo, Nicotiana tabacum. The protocol:
as §1, §2
(§7) Further, the presence or absence of the harmful effect of each inhibitor was evaluated in one of the following four categories depending on the degrees of growth inhibition, gangrene, change in color, deformation and the like of leaves (first to fourth leaves from the top).
(§8) Large: A severely harmful effect was observed.
(§9) Middle: A clearly harmful effect was observed.
(§10) Small: A slightly harmful effect was observed.
(§11) Absent: No harmful effect was observed.
as §6, §5

The test system of series [4] is Tobacco Michinoku 1 (burley cultivar) leaves (first to fourth leaves from the top). Briefly: Harmful effect of inhibitor on tobacco leaves, burley cultivar. Format: in vivo, Nicotiana tabacum. The protocol:
as §1, §2, §7, §8, §9, §10, §11, §6, §5

Where [5] appears, read: Nicotiana tabacum, 672 h, 28 days after the spraying, read-out: Axillary bud growth inhibition ratio.
The mark [6] stands for this setting: read-out: Axillary bud growth inhibition ratio.
The mark [7] stands for this setting: Nicotiana tabacum, 672 h, Table 1, flue-cured cultivar, concentration of active ingredient 0.1%, 28 days after the spraying, read-out: Axillary bud growth inhibition ratio.
Where [8] appears, read: Table 1, flue-cured cultivar, concentration of active ingredient 0.1%.
Where [9] appears, read: Table 2, burley cultivar, concentration of active ingredient 0.1%.
Setting [10] is: Table 2, burley cultivar, read-out: Axillary bud growth inhibition ratio.
Setting [11] is: Table 6, burley cultivar, read-out: Axillary bud growth inhibition ratio.
The mark [12] stands for this setting: Nicotiana tabacum, 672 h, read-out: Axillary bud growth inhibition ratio.
Setting [13] is: read-out: Axillary bud growth inhibition ratio, Table 2, burley cultivar.
Where [14] appears, read: read-out: Axillary bud growth inhibition ratio, Table 6, burley cultivar.

Read-outs that look alike come from different tables or passages of the source.

For the compound `CCCCC(CC)CO` (stereo not drawn) [2-Ethylhexanol, 2-ethylhexanol], the pest or weed control at 0.5 % in series [1] (setting [5]) was found to be 21%; in series [2] (setting [6]) it was 34%.
With `CCN(C(=O)n1nnn(-c2ccccc2Cl)c1=O)C1CCCCC1` [Fentrazamide, fentrazamide], the pest or weed control at 0.1 % came to 94% in series [1] (setting [7]) and 92% in series [2] (setting [10]). For the same compound, the “Harmful effect of inhibitor” value in series [3] (setting [8]) and in series [4] (setting [9]) was “Absent” each time.
`CCCCCCCCCCO` [Decyl alcohol, decyl alcohol]: the pest or weed control at 2.6 % in series [1] (Nicotiana tabacum, 672 h, Table 1, flue-cured cultivar, concentration of active ingredient 2.6%, 28 days after the spraying, read-out: Axillary bud growth inhibition ratio) worked out at 91%; in series [2] (setting [10]) it was 92%; in series [2] (setting [11]), 94%. Moreover, the values for the pest or weed control at 0.5 % in series [1] (setting [5]) and in series [2] (setting [6]) were 42% and 46%, respectively. In addition, the pest or weed control at 0.03 % in series [1] (Nicotiana tabacum, 672 h, Table 5, flue-cured cultivar, concentration of active ingredient 0.03%, 28 days after the spraying, read-out: Axillary bud growth inhibition ratio) was determined as 0%; in series [2] (setting [11]) it was 0%. The “Axillary bud growth inhibition ratio” value in series [1] (Table 5, flue-cured cultivar, concentration of active ingredient 2.6%, 28 days after the spraying) was 91%.
Take `CCC(C)Nc1c([N+](=O)[O-])cc(C(C)(C)C)cc1[N+](=O)[O-]` (stereo not drawn) [Butralin, butralin]: the pest or weed control at 0.03 % is 44% in series [1] (setting [12]) and 48% in series [2] (setting [14]). Also, the pest or weed control at 0.35 % in series [1] (setting [12]) came out at 98%; in series [2] (setting [13]), 96%; in series [2] (setting [14]) it was 97%. Further, the “Axillary bud growth inhibition ratio” value in series [1] (Table 5, flue-cured cultivar, concentration of active ingredient 0.35%, 28 days after the spraying) is 98%.
As for `CCC1(CC2(c3cccc(Cl)c3)CO2)C(=O)c2ccccc2C1=O` (stereo not drawn) [Indanofan], the pest or weed control at 0.1 % in series [1] (setting [7]) is 100%; in series [2] (setting [10]), 95%. For the same compound, the “Harmful effect of inhibitor” value in series [3] (in vivo) and in series [4] (in vivo) was “Absent” each time.
In the case of `CCc1cccc(C)c1N(C(=O)CCl)C(C)COC` (stereo not drawn) [Metolachlor, metolachlor], the pest or weed control at 0.1 % in series [1] (setting [7]) was found to be 95%; in series [2] (setting [10]) it was 91%. The “Harmful effect of inhibitor” value in series [3] (setting [8]) and in series [4] (setting [9]) was “Absent” throughout.
Turning to `CC(C)=CCC/C(C)=C/CO` [Geraniol, geraniol], the pest or weed control at 0.5 % stood at 30% in series [1] (setting [5]) and 28% in series [2] (setting [6]).
Turning to `COC(=O)c1c(Cl)c(Cl)c(C(=O)OC)c(Cl)c1Cl` [Chlorthal-dimethyl, chlorthal-dimethyl], the pest or weed control at 0.05 % stood at 43% in series [1] (Nicotiana tabacum, 672 h, Table 5, flue-cured cultivar, concentration of active ingredient 0.05%, 28 days after the spraying, read-out: Axillary bud growth inhibition ratio) and 39% in series [2] (setting [11]). The pest or weed control at 0.1 % worked out at 78% in series [1] (Nicotiana tabacum, 672 h, Table 5, flue-cured cultivar, concentration of active ingredient 0.1%, 28 days after the spraying, read-out: Axillary bud growth inhibition ratio) and 71% in series [2] (setting [11]). Besides, the pest or weed control at 0.2 % was found to be 88% in series [1] (Nicotiana tabacum, 672 h, Table 5, flue-cured cultivar, concentration of active ingredient 0.2%, 28 days after the spraying, read-out: Axillary bud growth inhibition ratio) and 82% in series [2] (Table 6, burley cultivar, concentration of active ingredient 0.2%, read-out: Axillary bud growth inhibition ratio). The “Harmful effect of inhibitor” value in series [3] (in vivo) and in series [4] (in vivo) was “Absent” throughout.
For `CCN(CC)C(=O)n1cnc(S(=O)(=O)c2c(C)cc(C)cc2C)n1` [Cafenstrole], the pest or weed control at 0.002 % in series [1] (setting [12]) was determined as 17%; in series [2] (read-out: Axillary bud growth inhibition ratio, Table 6, burley cultivar, concentration of active ingredient 0.002%), 15%. Also, the pest or weed control at 0.005 % in series [1] (setting [12]) was 20%; in series [2] (read-out: Axillary bud growth inhibition ratio, Table 6, burley cultivar, concentration of active ingredient 0.005%) it was 19%. The pest or weed control at 0.01 % in series [1] (setting [12]) is 23%; in series [2] (read-out: Axillary bud growth inhibition ratio, Table 6, burley cultivar, concentration of active ingredient 0.01%) it was 25%. The pest or weed control at 0.05 % in series [1] (setting [12]) was determined as 76%; in series [2] (read-out: Axillary bud growth inhibition ratio, Table 4, burley cultivar), 72%. The figures for the pest or weed control at 0.1 % in series [1] (setting [12]) and in series [2] (setting [13]) were 100% and 99%, respectively. Moreover, the “Harmful effect of inhibitor” value in series [3] (setting [8]) is listed as “Absent”; in series [3] (Table 5, flue-cured cultivar, concentration of active ingredient 0.002%) it was “Absent”; in series [3] (Table 5, flue-cured cultivar, concentration of active ingredient 0.005%), “Absent”; in series [3] (Table 5, flue-cured cultivar, concentration of active ingredient 0.01%), “Absent”; in series [4] (setting [9]) it was “Absent”; in series [4] (Table 6, burley cultivar, concentration of active ingredient 0.002%), “Absent”. For the same compound, the “Harmful effect of inhibitor” value is listed as “Absent” in series [4] (Table 6, burley cultivar, concentration of active ingredient 0.005%) and “Absent” in series [4] (Table 6, burley cultivar, concentration of active ingredient 0.01%).
Take `CCCOCCN(C(=O)CCl)c1c(CC)cccc1CC` [Pretilachlor]: the figures for the pest or weed control at 0.1 % in series [1] (setting [7]) and in series [2] (setting [10]) were 93% and 92%, respectively. Further, the “Harmful effect of inhibitor” value in series [3] (setting [8]) and in series [4] (setting [9]) was “Absent” in each case.
